Assay results taken from patent publication US6936584B1, “Mixed amylin activity compounds” (Amylin Pharmaceuticals, Inc., priority 1998, dated 2005).
“Also recorded” adds a separate entry of the source. Square brackets hold non-standard residues; d marks the D form. Ends that are not written are not given here. * marks the point of attachment. 125I = iodine-125 radiolabel, [125I]*; Aib = CC(C)(N)C(=O)O; For = O=C*

Columns and labels:
[1] = Effect on plasma glucose, lactate and calcium levels in anesthetized rats; assay type: in vivo, rat; conditions: 100 μg subcutaneous
gastric emptying in rats = assay: Phenol red gastric emptying assay in conscious rats; conditions: for dose at which suppression of gastric emptying was complete / ED50 for inhibition of gastric emptying: subcutaneous; for ED50 for inhibition of gastric emptying: normal (Harlan Sprague Dawley) rats, ±0.19 log units; for inhibition of gastric emptying: conscious rat model, adrenomedullin at highest doses (100 μg); for ED50 inhibiting gastric emptying (FIG. 7): conscious rats
calcitonin receptors [2] = biological target: T1, calcitonin receptors (Homo sapiens, UniProt P30988); assay: Adenyl cyclase stimulation, cyclic AMP accumulation in MCF7-7 cells; assay type: cell-based
T1 sequence (P30988 25-474): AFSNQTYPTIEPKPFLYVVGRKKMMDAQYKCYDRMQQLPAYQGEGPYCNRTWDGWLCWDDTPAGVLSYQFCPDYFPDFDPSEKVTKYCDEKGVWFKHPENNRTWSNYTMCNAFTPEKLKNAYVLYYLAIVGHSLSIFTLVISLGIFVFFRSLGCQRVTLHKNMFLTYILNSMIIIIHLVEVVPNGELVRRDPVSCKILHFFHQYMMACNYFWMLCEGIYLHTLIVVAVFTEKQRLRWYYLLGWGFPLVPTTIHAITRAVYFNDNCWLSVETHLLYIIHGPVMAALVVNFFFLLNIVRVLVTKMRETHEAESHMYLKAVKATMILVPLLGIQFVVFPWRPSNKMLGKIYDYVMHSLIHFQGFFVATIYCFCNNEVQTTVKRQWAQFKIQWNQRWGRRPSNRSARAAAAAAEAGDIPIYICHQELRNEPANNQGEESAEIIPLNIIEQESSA

[3] = system: effects of rat amylin on plasma levels of glucose, lactate and calcium; assay: Effect on plasma glucose, lactate, calcium and mean arterial pressure in the presence of amylin, anesthetized rats; assay type: in vivo
isolated soleus muscle = conditions: insulin 7.1 nM
calcitonin receptors [4] = biological target: T1, calcitonin receptors; assay: Binding to membranes from T47D cells (calcitonin receptors), displacement of [125I]salmon calcitonin; parameters: Membranes were prepared from confluent cultures of T47D cells; host or cells: T47D human breast carcinoma cells; conditions: for affinity for calcitonin receptors compared with amylin receptors: calcitonin (T47D) versus amylin (nucleus accumbens) receptors; for IC50: T47D membranes, mean ± SEM (n), read-out: Receptor IC50 in nM [mean ± SEM (n)] Calcitonin
[5] = biological target: human calcitonin receptors (T47D and MCF7-7 breast carcinoma cells) (human) (UniProt P30988); assay: cell-based or functional assay
CGRP receptors = biological target: T2, CGRP receptors (Homo sapiens, UniProt O60894+Q16602); assay: Binding to membranes from SK-N-MC cells (CGRP receptors), displacement of [125I]human-CGRP; conditions: read-out: Receptor IC50 in nM [mean ± SEM (n)] CGRP
T2 construct: SK-N-MC cells (ATCC No. HTB-10) were homogenized in 50 mM Hepes buffer; host or cells: SK-N-MC human neuroblastoma cells

amylin receptors = biological target: T3, amylin receptors (Rattus norvegicus, UniProt P32214); assay: Binding to rat nucleus accumbens membranes (amylin receptors), displacement of 125I-BH-rat amylin; conditions: read-out: Receptor IC50 in nM [mean ± SEM (n)] Amylin
T3 sequence (P32214 25-516): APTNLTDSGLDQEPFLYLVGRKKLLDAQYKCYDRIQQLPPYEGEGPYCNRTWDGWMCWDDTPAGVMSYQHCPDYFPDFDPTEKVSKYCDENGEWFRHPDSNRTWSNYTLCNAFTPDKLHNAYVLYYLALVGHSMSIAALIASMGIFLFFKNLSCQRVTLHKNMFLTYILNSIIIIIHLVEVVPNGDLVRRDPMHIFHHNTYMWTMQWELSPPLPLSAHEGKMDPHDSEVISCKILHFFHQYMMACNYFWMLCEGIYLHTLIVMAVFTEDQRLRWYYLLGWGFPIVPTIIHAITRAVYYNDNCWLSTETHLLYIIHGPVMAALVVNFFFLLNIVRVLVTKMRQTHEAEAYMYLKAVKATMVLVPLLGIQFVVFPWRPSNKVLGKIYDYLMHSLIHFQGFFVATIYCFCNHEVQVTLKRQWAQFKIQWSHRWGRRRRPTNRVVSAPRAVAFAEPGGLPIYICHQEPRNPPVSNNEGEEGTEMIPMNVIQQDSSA

[6] = biological target: T4, human calcitonin receptors (T47D and MCF7-7 breast carcinoma cells) (human, UniProt P30988 25-474); assay: radioligand competition, [125I]salmon calcitonin on T47D cell membranes
T4 construct: whole, on cells; also called calcitonin (T47D) receptors
T4 sequence (looked up): T1 sequence (P30988 25-474)

[7] = biological target: T5, human CGRP receptors (SK-N-MC neuroblastoma cells) (human, UniProt Q16602 23-461; O60894 27-148); assay: radioligand competition, SK-N-MC membranes against rat nucleus accumbens membranes
T5 construct: whole, on cells; also called CGRP (SK-N-MC) receptors

[8] = biological target: T6, amylin receptors of rat nucleus accumbens membranes (rat); assay: radioligand competition, 125I-BH-rat amylin on rat nucleus accumbens membranes
T6 chain 1: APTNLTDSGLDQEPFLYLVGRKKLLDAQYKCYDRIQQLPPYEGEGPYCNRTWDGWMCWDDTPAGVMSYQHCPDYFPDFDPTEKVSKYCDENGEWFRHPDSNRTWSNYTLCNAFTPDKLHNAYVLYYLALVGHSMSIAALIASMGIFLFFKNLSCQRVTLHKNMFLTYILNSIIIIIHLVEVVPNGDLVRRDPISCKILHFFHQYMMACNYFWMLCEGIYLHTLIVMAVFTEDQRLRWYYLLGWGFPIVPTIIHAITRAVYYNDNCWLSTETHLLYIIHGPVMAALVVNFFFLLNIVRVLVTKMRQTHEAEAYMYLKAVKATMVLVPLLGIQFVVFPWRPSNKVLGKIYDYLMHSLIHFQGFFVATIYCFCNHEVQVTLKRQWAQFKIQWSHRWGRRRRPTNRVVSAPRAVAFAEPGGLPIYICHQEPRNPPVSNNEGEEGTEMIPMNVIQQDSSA
T6 chain 2: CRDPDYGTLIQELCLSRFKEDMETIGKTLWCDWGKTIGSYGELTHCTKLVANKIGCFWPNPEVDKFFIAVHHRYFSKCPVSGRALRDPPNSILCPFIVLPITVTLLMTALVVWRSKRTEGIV

[9] = biological target: T4, human calcitonin receptors (T47D and …); assay: cell-based or functional assay
[10] = biological target: T7, rat calcitonin C1a receptor (rat, UniProt P32214 25-516); assay: cell-based or functional assay
T7 sequence (looked up): T3 sequence (P32214 25-516)

[11] = biological target: T5, human CGRP receptors (SK-N-MC …); assay: radioligand competition, [125I]human CGRP on SK-N-MC cell membranes
[12] = biological target: T4, human calcitonin receptors (T47D and …); assay: radioligand Kd used to derive Ki, T47D cell membranes
[13] = intravenous preinfusion of test compound, then rat amylin 50 μg bolus + 50 μg/hour, versus saline preinfusion

T5 sequence (Q16602 23-461, chain 1 of 2): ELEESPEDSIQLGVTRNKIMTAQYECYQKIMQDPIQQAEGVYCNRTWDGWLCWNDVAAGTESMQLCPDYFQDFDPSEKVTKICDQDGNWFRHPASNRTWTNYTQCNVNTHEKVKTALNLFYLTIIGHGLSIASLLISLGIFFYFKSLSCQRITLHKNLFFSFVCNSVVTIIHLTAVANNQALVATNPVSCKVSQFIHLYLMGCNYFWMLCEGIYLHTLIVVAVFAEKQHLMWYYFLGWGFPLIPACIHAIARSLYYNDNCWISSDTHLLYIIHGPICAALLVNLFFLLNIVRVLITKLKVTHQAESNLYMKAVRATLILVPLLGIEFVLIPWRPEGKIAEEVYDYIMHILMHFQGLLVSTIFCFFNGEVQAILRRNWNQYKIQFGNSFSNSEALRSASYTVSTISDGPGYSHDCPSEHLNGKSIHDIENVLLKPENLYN
T5 sequence (O60894 27-148, chain 2 of 2): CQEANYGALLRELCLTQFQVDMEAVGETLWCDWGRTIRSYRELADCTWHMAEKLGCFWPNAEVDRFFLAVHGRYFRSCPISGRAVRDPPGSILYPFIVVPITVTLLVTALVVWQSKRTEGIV
T2 sequence (Q16602 23-461): as the sequence (Q16602 23-461, chain 1 of 2) above
T2 sequence (O60894 27-148 partner): as the sequence (O60894 27-148, chain 2 of 2) above

## rat amylin: Synthetic rat amylin (Bachem, Torrance, Calif.), positive control
[1]
  plasma calcium concentration: fall
  plasma glucose: increase
  plasma lactate: increase
Gastric emptying in rats; diabetic rats
  dose at which suppression of gastric emptying was complete: 10 µg
Gastric emptying in rats; 5 minutes before gavage
  ED50 for inhibition of gastric emptying: 0.43 µg
Gastric emptying in rats
  ED50 for inhibition of gastric emptying: 0.60 nmol/kg
Gastric emptying in rats; normal HSD rats
  dose at which suppression of gastric emptying was complete: 1 µg

## rat calcitonin
Gastric emptying in rats
  inhibition of gastric emptying: dose-dependently inhibit gastric emptying
  ED50 inhibiting gastric emptying (FIG. 7): 0.41 μg/rat

## 4-methylpentanoyl-Ser-Thr-Ala-Val-Leu-Aib-Lys(For)-Leu-Ser-Gln-Glu-Leu-Aib-Lys(For)-Leu-Gln-Thr-Tyr-Pro-Arg-Thr-Asn-Thr-Gly-Ser-Gly-Thr-Pro [Compound 2]
Calcitonin receptors [2]
  fold less potent than human calcitonin in stimulating adenyl cyclase activity: 3.5 fold
  functional activity at calcitonin receptors: partial agonist activity
  increase in cyclic AMP as percent of the increase produced by human calcitonin: approximately 20%
[1]
  plasma calcium concentration: caused a fall in plasma calcium concentration
  plasma glucose: neither Compound 1 nor Compound 2 increased
  plasma lactate: neither Compound 1 nor Compound 2 increased
[3]; after infusion of test compound, with subsequent amylin infusion
  plasma calcium levels: A fall in plasma calcium levels
[3]; [13]
  increase in plasma glucose after amylin administration: smaller increases
  increase in plasma lactate after amylin administration: smaller increases
[3]; intravenous preinfusion of test compound, then rat amylin infusion
  reversal of the blood pressure lowering effect of amylin (mean arterial pressure): lack of ability of these compounds to reverse the blood pressure lowering effect of amylin
Isolated soleus muscle; amylin 100 nM, test compound 1 μM
  amylin antagonist activity, reversal of the effect of amylin on insulin-stimulated incorporation of glucose into glycogen: reversed
Isolated soleus muscle; test compound 100 nM
  amylin agonist activity, inhibition of insulin-stimulated incorporation of glucose into glycogen: no discernable amylin agonist activity; also recorded: neither Compound 1 (100 nM) nor Compound 2 (100 nM) affected the response to insulin
Gastric emptying in rats
  inhibition of gastric emptying: behaved as potent amylin and calcitonin agonists in inhibition of gastric emptying
Calcitonin receptors [4]
  affinity for calcitonin receptors compared with amylin receptors: greater affinity for calcitonin receptors than for amylin receptors

## Adrenomedullin: observed to behave as a CGRP agonist but not as an amylin or calcitonin agonist (YRQSMNNFQGLRSFGCRFGTCTVQKLAHQIYQFTDKDKDNVAPRSKISPQGY; ends and bridges not checked; cysteine pairing not given here; UniProt P35318 95-146, looked up)
Gastric emptying in rats
  inhibition of gastric emptying: does not inhibit gastric emptying

## Leu-Ser-Thr-Ala-Val-Leu-Gly-Arg-Leu-Ser-Gln-Glu-Leu-His-Arg-Leu-Gln-Thr-Tyr-Pro-Arg-Thr-Asn-Thr-Gly-Ser-Asn-Thr-Tyr [Compound 4]
Calcitonin receptors [2]
  fold less potent than human calcitonin in stimulating adenyl cyclase activity: 7 fold

## human amylin (from UniProt P10997 34-70) (ligand)
[5]
  fold less potent than calcitonin in stimulating adenyl cyclase activity, MCF7-7 cells: 5 fold
  fold less potent than calcitonin in stimulating adenyl cyclase activity, T47D cells: 7 fold

## LSTAVLGRLSQELHRLQTYPRTNTGSNTY [Compound 6]
CGRP receptors
  IC50: > 10000 nM
Calcitonin receptors [2]
  fold less potent than human calcitonin in stimulating adenyl cyclase activity: 80 fold
Calcitonin receptors [2]; read-out: EC50 cyclic AMP accumulation / adenylyl cyclase activity
  EC50: 34 nM
Amylin receptors
  IC50: 18.6 ± 5.3 nM
Calcitonin receptors [4]
  IC50: 0.56 nM
  affinity for calcitonin receptors compared with amylin receptors: greater affinity for calcitonin receptors than for amylin receptors

## Salmon calcitonin
Gastric emptying in rats
  inhibition of gastric emptying: dose-dependently inhibit gastric emptying
  ED50 inhibiting gastric emptying (FIG. 7): 0.12 μg/rat

## LSTSVLGRLSQELHRLQTYPRTNTGSNTY [Compound 3]
CGRP receptors
  IC50: > 10000 nM
Amylin receptors
  IC50: 37 ± 4.6 nM
Calcitonin receptors [4]
  IC50: 1.45 nM
  affinity for calcitonin receptors compared with amylin receptors: greater affinity for calcitonin receptors than for amylin receptors

## XLSTSVLGRLSQELHRLQTYPRTNTGSNTY (N-terminal acetyl (Ac-Leu)) [Compound 3]
[6]
  IC50: 1.45 nM
[7]
  fold lower affinity than for the amylin receptors: ≥ 300 fold
[8]
  IC50: 37 nM

## XLSTAVLGRLSQELHRLQTYPRTNTGSNTY (N-terminal acetyl (Ac-Leu)) [Compound 6]
[9]
  EC50 of adenylyl cyclase stimulation, MCF7-7 cells: 34 nM
  fold lower potency than human calcitonin, MCF7-7 cells: 80 fold
[6]
  IC50: 0.56 nM
[7]
  fold lower affinity than for the amylin receptors: ≥ 300 fold
[8]
  IC50: 18.6 nM

## LSTCVLGRLSQELHRLQTYPRTNTGSNTY (Synthetic 29-residue peptide) [Compound 1]
[9]
  EC50 of cyclic AMP accumulation, T47D cells: 2.2 nM
[10]
  EC50 of adenyl cyclase activity, cells expressing rat calcitonin C1a receptors: 0.97 nM
[11]
  IC50: 160 nM
[6]
  IC50: 0.22 nM
[7]
  fold lower affinity than for the amylin receptors: ≥ 300 fold
[8]
  IC50: 0.25 nM

## VL[Aib]K(For)LSQEL[Aib]K(For)LQTYPRTNTGSNTY-NH2 [Compound 8]
[6]
  IC50: 93 nM

B1: [^125I]salmon calcitonin (ligand, UniProt P01263 83-114, looked up)
peptide: CSNLSTCVLGKLSQELHKLQTY(125I)PRTNTGSGTP
modifications: ends and bridges not checked
notes: mature; also called labeled salmon calcitonin
[12]
  Kd: 0.019 nM
